Measurements as given in US9821000B2, “Compounds, compositions and corresponding uses for preventing and/or treating of dyslipidemia” (CENTRE NATIONAL DE LA RECHERCHE SCIENTIFIQUE (CNRS), priority 2013, dated 2017).

Columns and labels:
Type in all cases: cell-based, Saccharomyces cerevisiae
hem1Δ yeasts [1] = experiment: Phospholipid fatty acid content by mass spectrometry in lipo-intoxicated hem1Δ yeasts
Experimental: The hem1Δ yeasts were cultivated in standard conditions (control) or in conditions of SFA accumulation without (Ø) or with the addition of 100 μM of oleic acid, LPA or OAG as indicated.
FIG. 6A—After 7 h of incubation, the phospholipids (PL) were extracted and the different species of phosphatidylcholine (PC), which constitute the predominantly present PL were analyzed by mass spectrometry in positive mode, according to Pineau et al. (2008).
FIG. 6B—All the species of PL detectable in these conditions of mass spectrometry were analyzed to globally quantify the content in SFA forms.
The hem1Δ strain is cultivated in a YPG^A, YPG^+ or YPG^+ liquid medium+200 μM of compound to be tested in aerobic conditions, under stirring and at 28° C. for 7 h, starting from an initial cell concentration of 2·10^6 cells/mL. At the end of the culture, 10^8 cells are collected in order to carry out the extraction of the total lipids. After the cells have been put in suspension in 1 mL of distilled water at 4° C., 500 μL of glass beads (Ø 0.6 mm) are added and the whole mixture then undergoes three sequences of 20 seconds at 5000 rpm in a stirrer (the tubes are kept on ice between each of the three sequences). The cellular lysate then obtained, complemented with water for rinsing the beads (1 mL), is then transferred into a 40 mL glass tube (Corex™) and then the lipids are extracted by using a methanol:chloroform ratio of 2:1 (v/v). Initially, 6 mL of methanol are added and the entire mixture is vortexed for 30 seconds and then incubated for 15 minutes at 65° C. Once the mixture has been cooled to ambient temperature, […] of chloroform is added and then the entire mixture is again vortexed for 30 seconds before allowing the extraction to take place for 16 h. Subsequently, the sample is centrifuged for 12 minutes at 10000 g and then the supernatant is transferred into a new Corex™ tube. After the addition of 2 mL of chloroform and then 4 mL of distilled water, the entire mixture is vortexed for 30 seconds and then centrifuged for 8 minutes at 3000 g. After elimination of the resultant upper phase, the lower organic phase is collected in a hemolysis tube made of glass. Finally, the solvent is evaporated under a nitrogen stream at 80° C. to obtain total cell lipid samples.
The samples of total cell lipids are put back into suspension in 1 mL of dichloromethane in being vortexed for 30 seconds. The entire mixture is deposited on a silica column (BOND ELUT-SI, 100 mg 1 mL) preconditioned with 3 mL of methanol and then 2 mL of dichloromethane successively. The fraction retained by the column is then washed with 2 mL of dichloromethane and then 2 mL of acetone successively. Finally, 2 mL of a mixture of chloroform/methanol/water 50:45:5 (v/v/v) are deposited on the column and the phospholipids thus eluted are collected in a glass hemolysis tube. The solvent is evaporated under nitrogen at 80° C. to obtain the samples of cellular phospholipids.
Once put back into suspension in 100 μL of mixture Mix^− (isopropanol/acetonitrile/water 2:1:1 (v/v/v)+triethylamine 1% (v/v)) or mixture Mix^+ (isopropanol/acetonitrile/water 2:1:1 (v/v/v)+formic acid 1% (v/v)), the samples are analyzed by mass spectrometry (Electro Spray Ionization-Mass Spectrometry (ESI-MS)) in negative or positive mode respectively and the results obtained serve to analyze the fatty acid content of the different species of phospholipids.

QM strain = experiment: Toxicity test on QM strain (growth inhibition haloes); conditions: after three days
Experimental: 5 μl drops of OAG, LPA or oleic acid were deposited, from stock solutions in the concentrations indicated, on the surface of an agar medium on which the QM strain had been preliminarily spread. […] These haloes are on the contrary not observed in the presence of LPA and OAG.
At the same time, wild strains (WT) and QM are cultivated in aerobic conditions under stirring and at 28° C., in a YPG liquid medium before seeding 3500 cells per cm^2 of YPG+agar 2% (m/v). Following this transfer to solid medium, 1 μL drops of solutions of different compounds at 1, 10 and 100 mM in DMSO or EtOH are deposited on the surface of the agar. Separately, deposits of DMSO and EtOH are also made in order to assess the intrinsic toxicity of these two solvents. After three days of culture of 28° C., the toxicity of the tested compounds is evaluated by comparing the diameters of the growth inhibition haloes obtained for the deposits of undissolved solvents with those of the deposits of different concentrations of compounds tested.

hem1Δ yeasts [2] = experiment: Restoration of growth of lipo-intoxicated hem1Δ yeasts (drop test on agar); conditions: SFA accumulation conditions; 5 μl drops on agar; after three days
Experimental: FIG. 3B—The hem1Δ yeasts were cultivated in conditions of SFA accumulation as indicated. 5 μl drops of OAG, LPA and oleic acid in the concentrations indicated were then deposited on the surface of the agar medium. The restoration of growth of the hem1Δ yeasts is observed in the formation of colonies after three days.
The strain carrying the hem1Δ strain is cultivated, under aerobic conditions, under stirring and at 28° C., in a YPG^A liquid medium (YPG (yeast extract 1% (m/v), peptone 1% (m/v) and glucose 2% (m/v)) supplemented with δ-aminolevulinic acid (ALA) at 80 μg/mL). Lipotoxicity by saturated fatty acids (SFA) is prompted by depletion of unsaturated fatty acids (UFA)—the synthesis of which is dependent on the presence of haem (prosthetic grouping of the enzyme Ole1p especially)—by transfer into YPG^+ medium (YPG supplemented with ergosterol at 80 μg/mL to compensate for the depletion in sterol obtained under these conditions). The lipotoxicity can be induced in a solid medium YPG^++agar 2% (m/v) in transferring 3500 cells (hem1Δ coming from a pre-culture in YPG^A)/cm^2 or *alternatively in a liquid medium in inoculating 2·10^6 cells/mL of YPG^+. Classically, the effects of lipotoxicity on SFA are analyzed 7 h after the transfer into YPG^+ medium. The capacity of a compound to counter the deleterious effects of lipotoxicity with SFA is for its part evaluated successively with the addition of this compound on (or in) the YPG^+ transfer medium after seeding with cells.
1) Screening of compounds: Following the induction of lipotoxicity with SFA (for hem1Δ cultivated in a solid medium), 5 μL drops of solutions of different compounds at 10 mM in dimethylsulfoxide (DMSO) or in ethanol (EtOH) are deposited on the surface of agar. The capacity of a compound to counter the lipo-induced stoppage of cell growth is estimated by the appearance of a halo of hem1Δ colonies at the position of the deposit of said compound after three days of culture at 28° C. (cf. Deguil et al., 2011).

In the case of `CCCCCCCC/C=C\CCCCCCCC(=O)O` [oleic acid, reference compound], the “plasticity of membranes previously lipo-intoxicated by SFAs” value (hem1Δ yeasts [1]; hem1Δ yeast model) is reported as “restores the plasticity of the membranes”, the “production of di-unsaturated phospholipids (level of PC species 36:2)” value (hem1Δ yeasts [1]; hem1Δ, SFA accumulation, 100 μM compound, 7 h) is reported as “increase of the level of this species” and the “toxicity for cells that do not synthesize triglycerides” value (QM strain; QM strain on agar medium) is reported as “toxicity”. The “haloes of growth inhibition (absence of colonies)” value (QM strain; QM strain, 5 μl drops on agar) was “haloes of growth inhibition (absence of colonies) can be observed” and the “restoration of growth of lipo-intoxicated hem1Δ yeasts (formation of colonies)” value (hem1Δ yeasts [2]) was “restore the growth”.
